Assay results from patent EP4813403A1, “USE OF GLP-1R/GIPR DOUBLE-TARGET AGONIST IN PREPARING ANIMAL DRUG” (Hangzhou Zhongmeihuadong Pharmaceutical Co., Ltd., priority 2023, dated 2025).

Experiments:
[1] = in vivo
[2] = Repeated administration on male rats for 2 weeks (toxicity, toxicokinetics); assay type: in vivo, SD male rats
Protocol: 77 SD male rats (SPF grade) were selected and randomly divided into 10 groups based on body weight. Group 1 was the vehicle control group, including 5 animals. […] Group 5 to Group 7 were the groups administrated with the test substance 1; and Group 8 to Group 10 were the groups administrated with the test substance 2, each group including 8 animals, wherein 5 animals for primary test, and 3 animals for toxicokinetics test, and the administration dose was 1, 3 and 10 mg/kg respectively. Each of the above groups was continuously administered twice a week for 2 weeks (administrating at Day 1, Day 5, Day 8, Day 12 and Day 15).
During the experiment, the cage condition monitoring, detailed clinical observations, determination of the food consumption, determination of body weight, measurement of the blood biochemical and hematology indicator, investigation of the gross anatomy, weighing of the organ, studying on toxicokinetic were performed on all the groups of the animals.
Original data during each time period was tabulated. The average values and standard deviations and/or group change were calculated for each assay endpoint based on the group and sex. For each endpoint, the administrated group will be compared with the control group in the following aspect. A logarithmic conversion was performed to the endpoint data as desired prior to the start of the specific analyses.

[3] = Pharmacokinetics in C57 mice; conditions: C57, mouse, in vivo
Protocol: After subcutaneous or intravenous administration to C57 mice, plasma was collected and the drug concentration in plasma was determined to illustrate the in vivo pharmacokinetic properties of the compound according to the present invention. […] 20.0 µL of thawed plasma sample was taken. 20 µL of 50% aqueous methanol solution (containing 100 ng mL^-1 Tolbutamide) and 60 µL of acetonitrile were added sequentially to precipitate protein. The mixture was vortexed for 5 minutes, and centrifuged at 4815 rpm for 8 minutes. 50.0 µL of the supernatant was taken, into which 50.0 µL of 0.5% aqueous formic acid solution was added. The mixture was vortexed for 5 minutes. 50 µL of the mixture solution was sampled and injected into the LC-MS/MS to determine the drug concentration in plasma. Based on the drug concentration in plasma of the compounds in C57 mice, the pharmacokinetic parameters were calculated by applying the software Winnolin 8.3 in a non-compartmental model, and the results were shown in Table 7 and Table 8 below. Table 7 Average Pharmacokinetic Parameters after Single Subcutaneous Administration to Mice

With `CC[C@H](C)[C@H](NC(=O)[C@H](CC(C)C)NC(=O)[C@H](Cc1c[nH]c2ccccc12)NC(=O)[C@H](CCC(N)=O)NC(=O)[C@@H](NC(=O)[C@H](Cc1ccccc1)NC(=O)[C@H](C)NC(=O)[C@H](CCCCNC(=O)COCCOCCNC(=O)COCCOCCNC(=O)CC[C@H](NC(=O)CCCCCCCCCCCCCCCCCCC(=O)O)C(=O)O)NC(=O)[C@H](CCC(N)=O)NC(=O)[C@H](C)NC(=O)[C@@H](NC(=O)[C@H](CCCCN)NC(=O)[C@H](CC(=O)O)NC(=O)[C@H](CC(C)C)NC(=O)C(C)(C)NC(=O)[C@@H](NC(=O)[C@H](CO)NC(=O)[C@H](Cc1ccc(O)cc1)NC(=O)[C@H](CC(=O)O)NC(=O)[C@H](CO)NC(=O)[C@@H](NC(=O)[C@H](Cc1ccccc1)NC(=O)[C@@H](NC(=O)CNC(=O)[C@H](CCC(=O)O)NC(=O)C(C)(C)NC(=O)[C@@H](N)Cc1ccc(O)cc1)[C@@H](C)O)[C@@H](C)O)[C@@H](C)CC)[C@@H](C)CC)C(C)C)C(=O)N[C@@H](C)C(=O)NCC(=O)NCC(=O)N1CCC[C@H]1C(=O)N[C@@H](CO)C(=O)N[C@@H](CO)C(=O)NCC(=O)N[C@@H](C)C(=O)N1CCC[C@H]1C(=O)N1CCC[C@H]1C(=O)N1CCC[C@H]1C(=O)N[C@@H](CO)C(N)=O` [Tirzepatide, reference compound] the “heart rate recovery time” value [1] was over 120 h, the MTD ([2]; MTD for 2 weeks, rats) was 2077 nmol/kg (MTD for 2 weeks) and the “dose at which decrease of the body weight was observed after the first administration” value ([2]; SD male rats) was at least 3 mg/kg. The “Gross Anatomy” value ([2]; SD male rats, 1, 3, 10 mg/kg twice a week for 2 weeks) was “no abnormalities were found”, the “accumulation (toxicokinetic)” value ([2]; SD male rats, administered twice a week for 2 weeks) was “no substantial accumulation” and the MTD at 336 h ([2]; Sprague-Dawley, rat, in vivo, SD male rats, administered twice a week for 2 weeks) was at least 10 mg/kg. The “Safety Window (based on dosage)” value ([2]; rat 2-week MTD versus efficacy dose) was 416, the MRT ([3]; iv, MRT(0-t)) was 11.4 h and the MRT ([3]; iv, MRT(0-∞)) was 12 h. For the same molecule, the MRT ([3]; sc, MRT(0-t)) was 14.5 h and the MRT ([3]; sc, MRT(0-∞)) was 15.3 h.
